Test results as given in the NIST ThermoML archive (doi:10.1021/je900596d).

Conditions: for mass density: Vibrating tube method; for vapor or sublimation pressure: Closed cell (Static) method

FC(F)=C(F)C(F)(F)F [hexafluoropropene]
Conditions	mass density [kg/m3]
355.27 K, 1594.4 kPa, Fluid (supercritical or subcritical phases)	103.05
355.27 K, 1615.6 kPa, Fluid (supercritical or subcritical phases)	104.91
355.27 K, 1637.4 kPa, Fluid (supercritical or subcritical phases)	106.88
355.27 K, 1658.5 kPa, Fluid (supercritical or subcritical phases)	108.66
355.27 K, 1679.5 kPa, Fluid (supercritical or subcritical phases)	110.49
355.27 K, 1700.6 kPa, Fluid (supercritical or subcritical phases)	112.4
355.27 K, 1722 kPa, Fluid (supercritical or subcritical phases)	114.41
355.27 K, 1742.9 kPa, Fluid (supercritical or subcritical phases)	116.28
355.27 K, 1765.2 kPa, Fluid (supercritical or subcritical phases)	118.41
355.27 K, 1787.1 kPa, Fluid (supercritical or subcritical phases)	120.47
355.27 K, 1808.3 kPa, Fluid (supercritical or subcritical phases)	122.49
355.27 K, 1829.9 kPa, Fluid (supercritical or subcritical phases)	124.54
355.27 K, 1850.6 kPa, Fluid (supercritical or subcritical phases)	126.59
355.27 K, 1872.5 kPa, Fluid (supercritical or subcritical phases)	128.81
355.27 K, 1894.5 kPa, Fluid (supercritical or subcritical phases)	131.08
355.27 K, 1916.5 kPa, Fluid (supercritical or subcritical phases)	133.35
355.27 K, 1938.7 kPa, Fluid (supercritical or subcritical phases)	135.65
355.27 K, 1959.7 kPa, Fluid (supercritical or subcritical phases)	137.89
355.27 K, 1982.8 kPa, Fluid (supercritical or subcritical phases)	140.34
355.27 K, 2005.5 kPa, Fluid (supercritical or subcritical phases)	142.79
355.27 K, 2026.6 kPa, Fluid (supercritical or subcritical phases)	145.09
355.27 K, 2048.1 kPa, Fluid (supercritical or subcritical phases)	147.46
355.27 K, 2070.2 kPa, Fluid (supercritical or subcritical phases)	150.03
355.27 K, 2091.7 kPa, Fluid (supercritical or subcritical phases)	152.48
355.27 K, 2135.3 kPa, Fluid (supercritical or subcritical phases)	157.72
355.27 K, 2158.3 kPa, Fluid (supercritical or subcritical phases)	160.53
355.27 K, 2179.4 kPa, Fluid (supercritical or subcritical phases)	163.15
355.27 K, 2202.1 kPa, Fluid (supercritical or subcritical phases)	165.99
355.27 K, 2224 kPa, Fluid (supercritical or subcritical phases)	168.96
355.27 K, 2247.3 kPa, Fluid (supercritical or subcritical phases)	172.07
355.27 K, 2269.2 kPa, Fluid (supercritical or subcritical phases)	174.95
355.27 K, 2292 kPa, Fluid (supercritical or subcritical phases)	178.14
355.27 K, 2312.5 kPa, Fluid (supercritical or subcritical phases)	181.03
355.27 K, 2334.2 kPa, Fluid (supercritical or subcritical phases)	184.18
355.27 K, 2357.3 kPa, Fluid (supercritical or subcritical phases)	187.61
355.27 K, 2380.5 kPa, Fluid (supercritical or subcritical phases)	191.26
355.27 K, 2392.5 kPa, Fluid (supercritical or subcritical phases)	193.1
355.27 K, 2415.5 kPa, Fluid (supercritical or subcritical phases)	196.68
355.27 K, 2439.9 kPa, Fluid (supercritical or subcritical phases)	200.64
355.27 K, 2460.5 kPa, Fluid (supercritical or subcritical phases)	204.27
355.27 K, 2484.5 kPa, Fluid (supercritical or subcritical phases)	208.35
355.27 K, 2507 kPa, Fluid (supercritical or subcritical phases)	212.34
355.27 K, 2520.2 kPa, Fluid (supercritical or subcritical phases)	214.82
355.27 K, 2544.4 kPa, Fluid (supercritical or subcritical phases)	219.44
355.27 K, 2556.6 kPa, Fluid (supercritical or subcritical phases)	221.88
355.27 K, 2578.3 kPa, Fluid (supercritical or subcritical phases)	226.29
355.27 K, 2599.8 kPa, Fluid (supercritical or subcritical phases)	230.72
355.27 K, 2622.7 kPa, Fluid (supercritical or subcritical phases)	235.78
355.27 K, 2645.2 kPa, Fluid (supercritical or subcritical phases)	240.85
355.27 K, 2666.2 kPa, Fluid (supercritical or subcritical phases)	245.89
355.27 K, 2688.5 kPa, Fluid (supercritical or subcritical phases)	251.47
355.27 K, 2710.9 kPa, Fluid (supercritical or subcritical phases)	257.56
355.27 K, 2733.3 kPa, Fluid (supercritical or subcritical phases)	263.91
355.27 K, 2754.7 kPa, Fluid (supercritical or subcritical phases)	270.59
355.27 K, 2776.5 kPa, Fluid (supercritical or subcritical phases)	277.69
355.27 K, 2797.6 kPa, Fluid (supercritical or subcritical phases)	285.33
355.27 K, 2818.7 kPa, Fluid (supercritical or subcritical phases)	293.63
355.27 K, 2839.2 kPa, Fluid (supercritical or subcritical phases)	302.86
355.27 K, 2859.6 kPa, Fluid (supercritical or subcritical phases)	313.18
355.27 K, 2880.7 kPa, Fluid (supercritical or subcritical phases)	325.44
355.27 K, 2900.2 kPa, Fluid (supercritical or subcritical phases)	339.29
355.27 K, 2901.3 kPa, Fluid (supercritical or subcritical phases)	340.48
355.27 K, 2902.9 kPa, Fluid (supercritical or subcritical phases)	341.95
355.27 K, 2904 kPa, Fluid (supercritical or subcritical phases)	342.82
355.27 K, 2905.6 kPa, Fluid (supercritical or subcritical phases)	344.36
355.27 K, 2906.7 kPa, Fluid (supercritical or subcritical phases)	345.34
355.27 K, 2908.4 kPa, Fluid (supercritical or subcritical phases)	347.2
355.27 K, 2909.4 kPa, Fluid (supercritical or subcritical phases)	348.62
355.27 K, 2910.6 kPa, Fluid (supercritical or subcritical phases)	349.91
355.27 K, 2911.7 kPa, Fluid (supercritical or subcritical phases)	352.16
355.27 K, 2913.4 kPa, Fluid (supercritical or subcritical phases)	357.67
355.27 K, 2914.7 kPa, Fluid (supercritical or subcritical phases)	388.98
355.27 K, 2915.5 kPa, Fluid (supercritical or subcritical phases)	400.54
357.01 K, 3028.5 kPa, Liquid	789.77
357.01 K, 3030.8 kPa, Liquid	791.93
357.01 K, 3032.9 kPa, Liquid	793.76
357.01 K, 3035 kPa, Liquid	795.08
357.01 K, 3037.1 kPa, Liquid	796.63
357.01 K, 3039.5 kPa, Liquid	798.44
357.01 K, 3041.7 kPa, Liquid	799.96
357.01 K, 3044 kPa, Liquid	801.6
357.01 K, 3046 kPa, Liquid	802.75
357.01 K, 3052 kPa, Liquid	806.74
357.01 K, 3055.7 kPa, Liquid	808.82
357.01 K, 3059.3 kPa, Liquid	810.72
357.01 K, 3062.9 kPa, Liquid	812.63
357.01 K, 3066.3 kPa, Liquid	814.7
357.01 K, 3069.9 kPa, Liquid	816.53
357.01 K, 3073.4 kPa, Liquid	818.11
357.01 K, 3077.1 kPa, Liquid	819.71
357.01 K, 3081.1 kPa, Liquid	821.77
357.01 K, 3084.7 kPa, Liquid	823.28
357.01 K, 3088.4 kPa, Liquid	824.79
357.01 K, 3095.6 kPa, Liquid	828.01
357.01 K, 3097.6 kPa, Liquid	828.88
357.01 K, 3104.3 kPa, Liquid	831.16
357.01 K, 3114.1 kPa, Liquid	834.77
357.01 K, 3123.9 kPa, Liquid	838.1
357.01 K, 3133.7 kPa, Liquid	841.6
357.01 K, 3153.7 kPa, Liquid	847.97
357.01 K, 3163.8 kPa, Liquid	850.53
357.01 K, 3173.8 kPa, Liquid	853.47
357.01 K, 3184.9 kPa, Liquid	856.37
357.01 K, 3195 kPa, Liquid	858.9
357.01 K, 3205.2 kPa, Liquid	861.29
357.01 K, 3230.2 kPa, Liquid	866.99
357.01 K, 3243.1 kPa, Liquid	869.66
357.01 K, 3256.4 kPa, Liquid	872.23
357.01 K, 3269.5 kPa, Liquid	874.91
357.01 K, 3282.6 kPa, Liquid	877.54
357.01 K, 3295.4 kPa, Liquid	879.85
357.01 K, 3307.9 kPa, Liquid	882.22
357.01 K, 3320.3 kPa, Liquid	884.31
357.01 K, 3334 kPa, Liquid	886.47
357.01 K, 3347.2 kPa, Liquid	888.84
357.01 K, 3373.4 kPa, Liquid	892.84
357.01 K, 3387.8 kPa, Liquid	895.05
357.01 K, 3400.4 kPa, Liquid	896.81
357.01 K, 3418.8 kPa, Liquid	899.41
357.01 K, 3438.2 kPa, Liquid	902.07
357.01 K, 3457.5 kPa, Liquid	904.69
357.01 K, 3477.9 kPa, Liquid	907.3
357.01 K, 3514.9 kPa, Liquid	911.85
357.01 K, 3540.5 kPa, Liquid	914.94
357.01 K, 3590.4 kPa, Liquid	920.73
357.01 K, 3614.6 kPa, Liquid	923.49
357.01 K, 3639.2 kPa, Liquid	926.14
357.01 K, 3664.9 kPa, Liquid	928.77
357.01 K, 3689.5 kPa, Liquid	931.28
357.01 K, 3714.8 kPa, Liquid	933.72
357.01 K, 3740.1 kPa, Liquid	936.03
357.01 K, 3764.8 kPa, Liquid	938.27

Liquid
Conditions	vapor or sublimation pressure [kPa]
356.24 K	2965.3
356.76 K	2998.5
